Patent US20090202645A1, “INTRASYNOVIAL FORMULATIONS OF STANOZOLOL” (ACME DRUGS S.R.L., priority 2008, published 2009)

How the values were obtained:
[1] = solubility in water; type: physicochemical; conditions: crystalline substance
Description: The formulations according to the invention of stanozolol in an aqueous carrier are therefore aqueous suspensions, and it is necessary to prevent the suspended crystals of the drug from causing mechanical lesions such as abrasions and erosions despite the pressures and friction generated by the movement of the joint on the surfaces of the cartilage and synovial membrane.

[2] = persistence in the joint after a single intrasynovial injection; type: in vivo
Description: A single intrasynovial injection of said formulations allows the stanozolol to be brought up to and maintained at pharmacologically active concentrations in the joint for 6-7 days, a period which is long enough to produce evident clinical benefits and fully compatible with long-term treatments.

[3] = persistence in synovial fluid of the typical intrasynovial preparation; type: in vivo; conditions: micronised stanozolol 5 mg, water for injectables to 1 ml, horses and humans
Procedure: An example of the formulation of a typical preparation containing stanozolol administrable by the intrasynovial route to horses and humans, which remains in the synovial fluid for 5-7 days, is set out below:
Active ingredient: micronised stanozolol (having a prevalent population of particles with a diameter of less than 20 μm) 5 mg;
Water for injectables q.s. to 1 ml.

[4] = system: healthy skin fibroblast; conditions: cited from earlier work
[5] = system: synovial fibroblasts from rheumatoid synovial tissue; conditions: cited from earlier work
[6] = system: cartilage tissue; test: effect on tissue, especially cartilage tissue; conditions: unlike the majority of NSAIDs and anti-inflammatory corticosteroids

C[C@]12Cc3c[nH]nc3C[C@@H]1CC[C@@H]1[C@@H]2CC[C@@]2(C)[C@H]1CC[C@]2(C)O [stanozolol]
solubility in water [1]: insoluble in water
time stanozolol is maintained at pharmacologically active concentrations in the joint [2]: 6-7 days
time remaining in the synovial fluid [3]: 5 to 7 days
production of PGE2 [4]: induces the production
production of collagenase [4]: induces the production
effect on synovial fibroblasts [5]: no effect
degeneration of tissue, especially cartilage tissue [6]: does not cause the degeneration of tissue, especially cartilage tissue, but regenerates it
